Laboratory results taken from ChEMBL document CHEMBL1201862, “PubChem BioAssay data set” (2004).
Calls of active or inactive are those of the source.

Columns and labels:
[1] = target: T1, Corticotropin-releasing factor receptor 2/Corticotropin-releasing factor-binding protein (Homo sapiens, UniProt P24387+Q13324); experiment: activators of CRF receptor 2 with binding protein – uHTS hits, confirmation (AID 602473); assay type: functional; settings: read-out: EC50_Mean
T1 sequence (Q13324 whole entry): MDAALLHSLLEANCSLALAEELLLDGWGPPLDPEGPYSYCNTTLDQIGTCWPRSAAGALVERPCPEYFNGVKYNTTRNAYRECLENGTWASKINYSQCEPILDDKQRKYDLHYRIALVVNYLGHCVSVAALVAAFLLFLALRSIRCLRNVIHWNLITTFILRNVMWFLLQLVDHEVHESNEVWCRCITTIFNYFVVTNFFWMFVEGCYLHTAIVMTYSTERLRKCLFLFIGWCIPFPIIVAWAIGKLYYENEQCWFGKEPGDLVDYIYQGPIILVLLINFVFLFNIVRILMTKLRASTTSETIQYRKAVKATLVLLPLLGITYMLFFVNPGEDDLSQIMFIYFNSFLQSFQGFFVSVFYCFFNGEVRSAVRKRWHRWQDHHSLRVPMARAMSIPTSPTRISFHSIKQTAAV
T1 sequence (P24387 whole entry): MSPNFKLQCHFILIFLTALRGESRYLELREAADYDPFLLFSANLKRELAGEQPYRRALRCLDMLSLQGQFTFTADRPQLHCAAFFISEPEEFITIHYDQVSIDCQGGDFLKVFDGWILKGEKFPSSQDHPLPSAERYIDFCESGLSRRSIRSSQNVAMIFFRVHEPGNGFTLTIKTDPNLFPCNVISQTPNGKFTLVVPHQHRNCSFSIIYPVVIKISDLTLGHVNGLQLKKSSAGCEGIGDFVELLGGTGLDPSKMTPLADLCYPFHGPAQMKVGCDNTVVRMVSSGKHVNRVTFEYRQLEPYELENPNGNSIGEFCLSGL

Mucolipin-3 = Mucolipin-3 (Homo sapiens, UniProt Q8TDD5); experiment: Dose response cell-based high-throughput screening assay for agonists of the transient receptor potential channel ML3 (TRPML3). [Related pubchem assays: 1526, 1424, 1448 ]; assay type: functional
Mucolipin-3, sequence (Q8TDD5 whole entry): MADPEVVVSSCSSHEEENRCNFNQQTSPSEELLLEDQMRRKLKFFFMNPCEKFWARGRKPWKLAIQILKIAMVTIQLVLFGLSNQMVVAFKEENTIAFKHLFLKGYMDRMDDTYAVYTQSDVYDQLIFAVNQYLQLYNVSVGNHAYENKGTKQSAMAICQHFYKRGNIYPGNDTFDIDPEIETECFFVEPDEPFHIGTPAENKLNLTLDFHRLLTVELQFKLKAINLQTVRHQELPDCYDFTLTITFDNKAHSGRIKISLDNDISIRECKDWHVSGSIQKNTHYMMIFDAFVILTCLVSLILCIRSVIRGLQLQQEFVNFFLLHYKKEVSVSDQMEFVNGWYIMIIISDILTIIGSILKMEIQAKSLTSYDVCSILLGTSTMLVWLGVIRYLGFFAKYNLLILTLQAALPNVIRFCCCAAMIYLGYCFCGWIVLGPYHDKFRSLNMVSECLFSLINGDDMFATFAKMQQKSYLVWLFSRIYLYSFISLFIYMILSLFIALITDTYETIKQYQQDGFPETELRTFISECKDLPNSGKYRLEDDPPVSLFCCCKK

Ion channel NompC = Ion channel NompC (Danio rerio, UniProt Q7T1G6); experiment: Fluorescence counterscreen assay for TRPML3 agonists: dose response cell-based high-throughput screening assay to identify agonists of the transient receptor potential channel N1 (TRPN1). [Related pubchem assays: 1526, 1424, 1448 ]; assay type: functional
Ion channel NompC, sequence (Q7T1G6 whole entry): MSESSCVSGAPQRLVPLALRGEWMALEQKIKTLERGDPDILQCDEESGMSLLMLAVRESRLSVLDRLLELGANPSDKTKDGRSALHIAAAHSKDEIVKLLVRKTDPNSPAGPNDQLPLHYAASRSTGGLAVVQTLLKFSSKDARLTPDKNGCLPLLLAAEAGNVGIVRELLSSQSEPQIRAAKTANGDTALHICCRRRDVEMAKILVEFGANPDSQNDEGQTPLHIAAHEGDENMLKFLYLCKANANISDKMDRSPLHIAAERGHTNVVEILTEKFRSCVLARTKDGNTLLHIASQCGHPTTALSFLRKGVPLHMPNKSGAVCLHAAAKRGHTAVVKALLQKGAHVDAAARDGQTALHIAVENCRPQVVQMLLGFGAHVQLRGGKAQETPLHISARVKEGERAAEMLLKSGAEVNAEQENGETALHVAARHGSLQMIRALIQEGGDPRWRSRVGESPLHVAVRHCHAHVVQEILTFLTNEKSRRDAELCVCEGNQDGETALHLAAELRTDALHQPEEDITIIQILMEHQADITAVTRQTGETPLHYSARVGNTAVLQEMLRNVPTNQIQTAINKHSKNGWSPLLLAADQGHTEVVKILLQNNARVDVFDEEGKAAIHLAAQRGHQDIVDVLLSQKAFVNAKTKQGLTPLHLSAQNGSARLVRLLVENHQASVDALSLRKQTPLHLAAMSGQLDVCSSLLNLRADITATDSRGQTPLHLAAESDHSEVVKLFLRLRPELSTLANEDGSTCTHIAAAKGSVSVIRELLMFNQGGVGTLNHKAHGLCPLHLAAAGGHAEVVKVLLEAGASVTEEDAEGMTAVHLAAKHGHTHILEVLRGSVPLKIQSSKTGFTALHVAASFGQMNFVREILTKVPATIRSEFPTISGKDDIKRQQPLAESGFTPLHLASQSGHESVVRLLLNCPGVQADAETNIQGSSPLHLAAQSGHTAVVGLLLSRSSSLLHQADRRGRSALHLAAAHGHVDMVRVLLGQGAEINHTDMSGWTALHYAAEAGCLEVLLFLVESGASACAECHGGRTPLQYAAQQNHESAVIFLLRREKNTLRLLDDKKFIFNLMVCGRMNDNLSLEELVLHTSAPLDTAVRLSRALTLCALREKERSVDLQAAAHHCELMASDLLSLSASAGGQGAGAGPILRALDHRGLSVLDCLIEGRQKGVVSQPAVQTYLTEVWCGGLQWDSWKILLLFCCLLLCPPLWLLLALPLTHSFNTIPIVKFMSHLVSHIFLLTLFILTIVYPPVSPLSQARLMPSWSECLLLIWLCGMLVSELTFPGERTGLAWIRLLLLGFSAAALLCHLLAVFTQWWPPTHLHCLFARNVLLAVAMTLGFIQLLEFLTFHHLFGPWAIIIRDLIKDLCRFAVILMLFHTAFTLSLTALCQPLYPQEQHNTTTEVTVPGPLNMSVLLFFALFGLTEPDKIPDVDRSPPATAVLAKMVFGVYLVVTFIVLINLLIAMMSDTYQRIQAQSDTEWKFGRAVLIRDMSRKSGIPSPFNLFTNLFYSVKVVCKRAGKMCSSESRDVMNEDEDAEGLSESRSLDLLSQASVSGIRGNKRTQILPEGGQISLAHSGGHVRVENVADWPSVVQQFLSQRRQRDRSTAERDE

[2] = target: T2, Neuropeptide Y receptor type 2 (Homo sapiens, UniProt P49146); assay type: functional, cell-based;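 further: HEK293 cells expressing the receptor and a CNG channel; stimulus was NPY near EC95 followed by isoproterenol to raise cAMP; antagonist potency measured as restoring cAMP signal that NPY suppresses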
T2 sequence (P49146 whole entry): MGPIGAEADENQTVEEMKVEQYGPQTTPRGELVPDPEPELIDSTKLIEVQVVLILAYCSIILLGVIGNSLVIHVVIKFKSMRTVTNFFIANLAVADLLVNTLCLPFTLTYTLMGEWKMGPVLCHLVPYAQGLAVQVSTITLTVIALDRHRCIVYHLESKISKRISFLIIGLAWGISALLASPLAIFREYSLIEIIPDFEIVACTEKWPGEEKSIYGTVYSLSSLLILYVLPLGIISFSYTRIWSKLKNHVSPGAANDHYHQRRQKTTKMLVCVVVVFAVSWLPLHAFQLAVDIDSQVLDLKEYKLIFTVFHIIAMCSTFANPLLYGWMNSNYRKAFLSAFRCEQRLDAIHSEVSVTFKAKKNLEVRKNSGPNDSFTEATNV

[3] = target: T3, Neuropeptide Y receptor type 1 (Homo sapiens, UniProt P25929); assay type: functional;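 further: HEK293 cells with a CNG channel challenged with NPY then isoproterenol; potency as antagonist that reverses NPY suppression of cAMP signal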
T3 sequence (P25929 whole entry): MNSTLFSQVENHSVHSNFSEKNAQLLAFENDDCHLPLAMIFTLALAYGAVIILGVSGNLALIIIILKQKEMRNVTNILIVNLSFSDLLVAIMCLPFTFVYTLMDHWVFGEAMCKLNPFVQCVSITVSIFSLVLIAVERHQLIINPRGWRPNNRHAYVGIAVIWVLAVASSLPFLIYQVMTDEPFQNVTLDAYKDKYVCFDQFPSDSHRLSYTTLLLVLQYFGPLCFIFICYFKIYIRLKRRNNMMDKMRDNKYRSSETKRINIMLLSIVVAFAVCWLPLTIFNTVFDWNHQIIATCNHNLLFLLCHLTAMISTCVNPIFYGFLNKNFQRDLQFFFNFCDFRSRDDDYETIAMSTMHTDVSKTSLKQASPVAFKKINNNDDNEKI

HeLa = experiment: Cytotoxicity counterscreen assay for transcriptional activators of heat shock protein 70 (Hsp70). [Related pubchem assays: 1203, 1252 ]; assay type: functional; settings: Homo sapiens
[4] = target: Induced myeloid leukemia cell differentiation protein Mcl-1 (Homo sapiens, UniProt Q07820); assay type: functional
Induced myeloid leukemia cell differentiation protein Mcl-1, sequence (Q07820 whole entry): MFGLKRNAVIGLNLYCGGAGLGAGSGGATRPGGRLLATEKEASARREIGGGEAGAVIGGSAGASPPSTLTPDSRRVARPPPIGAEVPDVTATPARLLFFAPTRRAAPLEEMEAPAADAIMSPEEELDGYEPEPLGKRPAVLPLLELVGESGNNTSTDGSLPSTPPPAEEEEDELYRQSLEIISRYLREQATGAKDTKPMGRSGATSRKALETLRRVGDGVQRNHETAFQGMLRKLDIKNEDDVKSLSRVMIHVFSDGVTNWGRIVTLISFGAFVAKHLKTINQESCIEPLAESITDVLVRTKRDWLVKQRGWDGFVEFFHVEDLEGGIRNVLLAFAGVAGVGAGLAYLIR
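Wherever CC50 is given: cells exposed to compound for 16 hours before readout.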

## Cc1cc(C)cc(N2C(=O)CSC2c2cccs2)c1 (configuration not stated)
[1]
  EC50: > 53 µM (inactive)
Mucolipin-3
  EC50: > 29.9 µM (not active)
Ion channel NompC
  EC50: > 29.9 µM (not active)

## COc1ccc(-c2nnc3sc(C(C)N4C(=O)c5ccccc5C4=O)nn23)cc1 (configuration not stated)
[2]
  IC50: 6.02 µM (active)
[3]
  IC50: 9.35 µM (active)

## COC(=O)Nc1ccc(S(=O)(=O)NCc2ccccn2)cc1
HeLa
  CC50: > 99 µM (not active)
[4]
  IC50: 6.18 µM (not active)
